Experimental data published in PubChem BioAssay (NCI).
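Where inhibition never reached the appropriate level, the endpoint shown equals the highest concentration tested. Otherwise, values were interpolated linearly from a five-concentration, 48-hour dose response in 96-well plates. TGI denotes the concentration required for complete inhibition of growth.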

Key:
Experiment in all cases: NCI tumour cell line growth inhibition, 48 h
[1] = tested on: K-562 leukemia
[2] = tested on: MDA-MB-435
[3] = tested on: HCT-116 colon
[4] = tested on: OVCAR-8 ovarian
[5] = tested on: RPMI-8226 leukemia
[6] = tested on: UACC-62 melanoma
[7] = tested on: OVCAR-3 ovarian
[8] = tested on: T-47D breast
[9] = tested on: NCI-H460 lung
[10] = tested on: NCI-H522 lung

Compound	TGI [1] [µM]	TGI [2] [µM]	TGI [3] [µM]	TGI [4] [µM]	TGI [5] [µM]	TGI [6] [µM]	TGI [7] [µM]	TGI [8] [µM]	TGI [9] [µM]	TGI [10] [µM]
Cc1nc2c(Br)cc(Br)cc2c(=O)n1-c1ccccc1NC1OC(CO)C(O)C(O)C1O (stereo not given)	> 100	> 100	> 100	> 100	> 100	> 100	> 100	> 100	> 100	> 100
O=C1/C(=C/c2ccccc2)Oc2cc(O)ccc21	> 100	> 100	> 100	> 100	> 100	> 100	> 100	> 100	> 100	> 100
Clc1ccc2c(c1)N(CCCN1CCCC13CCCCC3)c1ccccc1S2	21.6	27.4	30.7	42.6	11.3	31.1	34.4	30	21.4	25.1
COC(=N)C1(C#N)NC(c2ccsc2)C(C#N)(C#N)NC1c1ccsc1 (stereo not given)	> 100	> 100	> 100	> 100	> 100	> 100	> 100	> 100	> 100	> 100
CC(=O)NC1C(OCc2ccccc2)OC(CO)C(O)C1OC(C)C(=O)N[C@@H](C)C(=O)N[C@H](CCC(=O)NCCNCCNc1c2ccccc2nc2cccc([N+](=O)[O-])c12)C(N)=O (stereo not given in full)	> 100	0.235	0.512	0.457	0.381	0.199	4.44	0.598	0.0486	0.0665
CC(C)(C)C1CCC2c3c([nH]c4ccccc34)C3C(=O)N(c4ccc([N+](=O)[O-])cc4)C(=O)C3C2C1 (stereo not given)	55.3	> 100	22.6	> 100	> 100	39	28.4	> 100	> 100	40.8
COc1cc2c(cc1OC)C(=O)N(c1ccc(OCCN3CCCC3)cc1)C2	> 100	> 100	> 100	> 100	> 100	> 100	> 100	> 100	> 100	> 100
FC1=C2C3CCC(C3)C2C1(F)F (stereo not given)	> 100	> 100	> 100	> 100	> 100	> 100	> 100	> 100	> 100	> 100
CC(C)(CO[C@H]1C[C@H]2CC[C@@]1(C)C2(C)C)[N+](=O)[O-]	35	34	29.1	56.8	38.7	41.7	56.5	45.6	38.5	40.5
COC1CC(C)(NC(=O)C(F)(F)F)C2OC(c3ccccc3)OCC2O1 (stereo not given)	> 100	> 100	> 100	> 100	> 100	> 100	> 100	> 100	> 100	> 100
CN1CCN(C(=O)c2cn(Cc3cncn3Cc3ccc4c(c3)OCO4)cc2-c2cccc3ccccc23)CC1	53.5	> 58.9	> 100	> 100	38.7	46.8	> 91.3	> 100	> 100	84.1
CCN1CC2(C)CCC(OC)C34C5CC6CCC(O)(C5C(=O)O6)C(C(O)C23)C14 (stereo not given)	> 100	> 100	> 100	> 100	> 100	> 100	> 100	> 100	> 100	> 100
CCN(CC)C(=S)SC(C(=O)Nc1nnc(-c2ccc(Cl)cc2)o1)c1ccccc1 (stereo not given)	42.4	36	13.5	> 100	22	23.6	10.2	59.7	84.1	26.6
CSC(SC)=C(C(=O)c1ccc(Cl)cc1)n1c(=O)sc2cc(Br)ccc21	> 100	> 100	> 100	> 100	> 100	> 100	> 100	> 100	> 100	> 100
COc1cc(CCNC2=CC(=O)c3nc[nH]c3C2=O)ccc1O	> 100	31.4	48	47.6	68.7	36.8	30.5	73.2	> 100	62.3
Cc1ccccc1NC(=O)O/N=C(\Cl)C(C)C	5.51	30.1	4.79	33.8	4.03	28.3	9.35	11.3	34.7	3.18
NC(=O)[C@H](Cc1ccc(O)cc1)Nc1c(O)c2c(c(O)c1Cl)C(=O)C=CC2=O	5.37	4	3.27	> 6.26	7	4.29	> 5.74	5.27	> 10	4.01
CCOP(=O)(/C=C/n1cc(C)c(=O)[nH]c1=O)OCC	> 100	> 100	> 100	> 100	> 100	> 100	> 100	> 100	> 100	> 100
